# Experimental data published in patent US5716986A, “Oxaindene derivatives and process for the preparation thereof” (priority 1995, dated 1998).
# What was measured:
# [1] = test system: Ear oedema induced by arachidonic acid in mice; test: Ear oedema induced by arachidonic acid in mice; type: in vivo, NMRI strain); settings: female NMRI mice, topical, 30 minutes before arachidonic acid (3 mg), measured 60 minutes later
# Protocol: 3. Ear oedema induced by arachidonic acid in mice
# Inflammation of ear was induced by arachidonic acid using a modified version of the procedure described by Young et al. [Young, J. M., Spires, D. A., Bedord, C. J., Wagner, B., Ballaron, S. J., De Young, L. M.: The mouse ear inflammatory response to topical arachidonic acid, J. Invest. Dermatol. 82, 67-371 (1984)]. The experiments were carried out in female mice from the NMRI strain weighing 25 to 30 g (8 animals/groups). Drugs were applied topically in acetone or ethanol by an automatic pipette in 10 μl volumes to both the inner and outer surfaces of the ear. 30 minutes after drug or vehicle administration both sides of the left ear were brushed with 3 mg of arachidonic acid in 20 μl of acetone and both sides of the right ear were treated with 20 μl of acetone only. 60 minutes later the animals were killed by aether, then a disk of 7 mm diameter was cut off both ears. The mass of each disk was measured by an analytical scale and the mean of the difference of the left and right ears was calculated for every group. ID50 values were determined by plotting the log-dose versus percentage response as compared to vehicle-treated animals.
# [2] = molecular target: T1, 5-lipoxygenase (5-LO) enzyme (Homo sapiens, UniProt P09917); test: Measurement of 5-LO enzyme activity in cell free system prepared from human leukocytes (direct); type: biochemical; settings: human polymorphonuclear leukocytes, 0.02 mM arachidonic acid, pH 7.5, 37° C., 5 minutes, read-out: 5-lipoxygenase enzyme inhibition, direct, IC50
# T1 construct: the enzyme in the cytosol was partially purified by ammonium sulphate fractionation; endogenous in cells; host or cells: human polymorphonuclear leukocytes (sonicated, cytosol, ammonium sulphate fraction)
# T1 sequence (P09917 1-674): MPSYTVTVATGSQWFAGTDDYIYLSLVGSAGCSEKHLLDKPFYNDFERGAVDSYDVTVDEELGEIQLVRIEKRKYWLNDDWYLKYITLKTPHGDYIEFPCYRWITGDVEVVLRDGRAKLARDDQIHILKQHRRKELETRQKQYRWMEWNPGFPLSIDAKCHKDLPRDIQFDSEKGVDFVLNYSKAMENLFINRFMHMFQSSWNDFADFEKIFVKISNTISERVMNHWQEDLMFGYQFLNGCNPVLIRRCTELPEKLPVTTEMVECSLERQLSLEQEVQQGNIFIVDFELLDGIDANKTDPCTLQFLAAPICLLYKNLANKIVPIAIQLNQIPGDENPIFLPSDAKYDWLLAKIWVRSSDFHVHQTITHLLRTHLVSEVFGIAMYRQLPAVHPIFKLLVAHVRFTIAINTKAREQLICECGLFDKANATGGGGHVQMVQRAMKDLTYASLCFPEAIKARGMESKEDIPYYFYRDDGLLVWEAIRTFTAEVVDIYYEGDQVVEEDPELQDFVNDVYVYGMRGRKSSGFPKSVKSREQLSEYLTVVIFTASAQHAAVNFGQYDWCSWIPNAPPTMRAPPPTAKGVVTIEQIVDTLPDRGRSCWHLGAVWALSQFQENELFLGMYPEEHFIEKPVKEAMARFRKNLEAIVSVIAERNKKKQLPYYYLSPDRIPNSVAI
# Protocol: 1. Measurement of 5-LO enzyme activity in cell free system prepared from human leukocytes
# The enzyme activity was measured according to the modified method of Ochi et al. [K. Ochi, T. Yoshimoto, S. Yamamoto, K. Taniguchi, T. Miyamoto: Arachidonate 5-lipoxygenase of guinea pig peritoneal polymorphonuclear leukocytes, J. Biol. Chem. 258, 5754-5758 (1983)]. The principle of the method is as follows: in in vitro systems, during the reaction catalysed by 5-LO 5-hydroxyperoxy-6,8,11,14-eicosatetraenoic acid (5-HPETE) is formed from arachidonic acid, then it is transformed to 5-hydroxy-6,8,11,14-eicosatetraenoic acid (5-HETE). Both 5-HPETE and 5-HETE have absorption maximum at 236 nm, therefore it is possible to determine the activity of 5-LO enzyme by measuring the change of absorption at 236 nm. 5-LO was prepared from human polymorphonuclear leukocytes by a simple purification procedure. The cells were washed and lysed by a sonic disintegrator. The lysate was centrifuged and the enzyme in the cytosol was partially purified by ammonium sulphate fractionation (the enzyme precipitates at 50% saturation). The reaction mixture (50 mM tris-HCl pH=7.5, 2mM CaCl2, 0.1 mM ATP, 0.02 mM arachidonic acid) was incubated at 37° C. for 5 minutes. The reaction was started with the addition of arachidonic acid and stopped by the addition of 10 mM of citric acid. The thus-obtained 5-HPETE and 5-HETE were extracted with a 6:4 mixture of diethyl ether and hexane and the absorption of the organic phase was measured by spectrophotometry at […].
# PAF lethality in mice = test: PAF induced anaphylactic shock test in mice (PAF lethality); type: in vivo; settings: Mus musculus, ip, 1 h; male NMRI mice, intraperitoneal, 30 minutes before intravenous PAF 100 μg/kg, mortality at one hour; read-out: PAF lethality in mice ID50
# Protocol: 4. PAF induced anaphylactic shock test in mice
# A modification of the method of Young et al. [Young, J. M., Maloney, P. J., Jubb, S. N. and Clark, J. S.: Pharmacological investigation of the mechanism of platelet-activating factor mortality in the mouse, Prostaglandins 30, 545-551 (1985)] was used. The experiments were carried out in male NMRI mice weighing 20-25 g (10 animals/group). The test compounds were suspended in 0.4% methyl cellulose and administered intraperitoneally in a volume of 10 ml/kg. The mice of the control group received only vehicle. 30 minutes later the animals received intravenous PAF in a dose of 100 μg/kg (5 ml/kg). Mortality was determined one hour after PAF administration. Every experiment was repeated three times (n=30). The ratio of mortality of the treated animals was compared to that of the control mice. ID50 values were calculated by linear regression analysis.
# [3] = molecular target: T1, 5-lipoxygenase (5-LO) enzyme; test: Determination of 5-LO enzyme activity of human leukocytes by measuring their leukotriene B4 production (whole cell); type: cell-based; settings: human PMN leukocytes, LTB4 release, ionophore A-23187 0.001 mM, pH 7.2, 37° C., 15 minutes, RIA; read-out: 5-lipoxygenase enzyme inhibition, in whole cell, IC50
# Description: 2. Determination of 5-LO enzyme activity of human leukocytes by measuring their leukotriene B4 production
# The method of Mia et al. was applied [H. Mita, Y. Yui and T. Shida: Effect of AA-861, a 5-lipoxygenase inhibitor on leukotriene synthesis in human polymorphonuclear leukocytes and on cyclooxygenase and 12-lipoxygenase activities in human platelets, Allergy 41, 493-498, (1986)]. The principle of the experiment is as follows: the calcium ionophore A-23187 induces the synthesis and the release of LTB4 by human polymorphonuclear leukocytes. The amount of LTB4 released into the incubation medium reflects the 5-LO enzyme activity of the intact cells. The incubation medium was Hank's balanced medium (HBBS) supplemented with 17 mM of Tris-HCl (pH 7.2), 1.22 mM of CaCl2, 1 mM of MgCl2, 0.001 mM of A-23187 and 10^4 PMN leukocyte per ml reaction mixture. The reaction was started with the addition of ionophore then incubated at 37° C. for 15 minutes. The reaction was stopped by adding 5 mM of EDTA and by chilling the samples in an ice bath. The samples were centrifuged and the amount of LTB4 in the supernatant was determined by radioiimmunoassay (RIA).
Compound,Arachidonic acid ear oedeme in mice ID50 [1] [mg/ear],IC50 [2] [nM],ED50 (PAF lethality in mice) [mg/kg],IC50 [3] [nM]
"COc1cc2c(cc1O)[C@@H]1CCC[C@@H]1O2 (relative stereo) [Example 6, cis-6-Methoxy-2,3,3a,8a-tetrahydro-1H-8-oxacyclopenta[a]indene-5-ol]",0.23,1200,100,–
"CC(Cc1ccc(O)c(O)c1)C(C)Cc1ccc(O)c(O)c1 (stereo not drawn) [NDGA, 1,4-bis(3,4-dihydroxyphenyl)-2,3-dimethylbutane, reference compound]",> 1.0,–,29.2,–
"CCOc1cc2c(cc1O)[C@@H]1CCC[C@@H]1O2 (relative stereo) [Example 8, cis-6-Ethoxy-2,3,3a,8a-tetrahydro-1H-8-oxa-cyclopenta[a]indene-5-ol]",–,490,45,–
"CC1=C(C)C(=O)C(CCCCC#CCCCC#CCO)=C(C)C1=O [AA-861, 2-(12-hydroxy-5,10-dodecadiinyl)-3,5,6-trimethyl-p-benzoquinone, reference compound]",0.13,4100,58.9,1100
"Cc1c(C)c2c(c(C)c1O)[C@@H]1CCC[C@@H]1O2 (relative stereo) [Example 2, cis-4,6,7-Trimethyl-2,3,3 a,8a-tetrahydro-1H-8-oxacyclopenta[a]indene-5-ol]",0.18,390,16.2,50
"Cc1c(C)c2c(c(C)c1O)[C@H]1CCC=C[C@H]1O2 (relative stereo) [Example 23, cis-1,3,4-Trimethyl-5a,8,9,9a-tetrahydrodibenzofurane-2-ol]",–,540,23.2,140
"Cc1c(C)c2c(c(C)c1O)C1CCCCCC1O2 (stereo not drawn) [Example 10, 1,2,4-Trimethyl-4b,6,7,8,9,9a-hexahydro-5H-10-oxabenzo[a]azulene-3-ol]",0.16,99,22.5,70
"Cc1c(C)c2c(c(C)c1O)[C@@H]1CC=C[C@@H]1O2 (relative stereo) [Example 1, cis-4,6,7-Trimethyl-3a,8a-dihydro-3H-8-oxacyclopenta[a]indene-5-ol]",–,74,51.7,680
"Cc1c(O)cc2c(c1C)O[C@H]1C=CC[C@@H]21 (relative stereo) [Example 3, cis-6,7-Dimethyl-3a,8a-dihydro-3H-8-oxacyclopenta[a]indene-5-ol]",–,5500,–,500
"O=C1CCN(c2ccccc2)N1 [Phenidone, 1-phenyl-3-pyrazolidinone, reference compound]",0.18,–,14.2,–
"CCOc1cc2c(cc1O)[C@@H]1CC=C[C@@H]1O2 (relative stereo) [Example 7, cis-6-Ethoxy-3a,8a-dihydro-3H-8-oxacyclopenta[a]indene-5-ol]",0.11,1700,27.3,300
"COc1cc2c(cc1O)[C@@H]1CC=C[C@@H]1O2 (relative stereo) [Example 5, cis-6-Methoxy-3a,8a-dihydro-3H-8-oxacyclopenta[a]indene-5-ol]",0.18,2700,–,300
"Cc1c(O)cc2c(c1C)O[C@H]1CCC[C@@H]21 (relative stereo) [Example 4, cis-6,7-Dimethyl-2,3,3a,8a-tetrahydro-1H-8-oxacyclopenta[a]indene-5-ol]",–,1200,65.2,300
